Test results taken from patent US12573042B2, “Differentiation device, differentiation method for depression symptoms, determination method for level of depression symptoms, stratification method for depression patients, determination method for effects of treatment of depression symptoms, and brain activity training device” (ADVANCED TELECOMMUNICATIONS RESEARCH INSTITUTE INTERNATIONAL, priority 2017, dated 2026).

How the values were obtained:
Format in all cases: in vivo, human
melancholic MDD patients [1] = test: Change of functional connectivities FC #1 and FC #2 (rs-fMRI) through antidepressant treatment
Description: Next, contribution to ΔWLS was considered for each functional connectivity in order to consider an influence of SSRI (escitalopram) on each of the 12 pairs of functional connectivities.
Specifically, in preliminary and subsequent analysis of administration, the following numerical expression was used to calculate a contribution score of each functional connectivity.
That is, si represents a difference in average connectivity strength between the healthy control group and the MDD group weighted by the weight of the classifier. […] Further, in Expression 2, FCi^MDD represents reduction (a negative sign through subtraction). […] In other words, the fact that ci becomes negative means that FCi after treatment becomes closer to the corresponding FC of a healthy individual. In contrast, the fact that ci becomes positive means that FCi after treatment becomes closer to the MDD. The numbers of members in the healthy control group and in the MDD group are different from each other, and thus the significant difference between ci and si for each FCi is evaluated by a Welch's t-test. The Welch's t-test is calculated in accordance with the following numerical expression.

healthy subjects = test: Change of FC #1 and FC #2 (rs-fMRI) on administration of SSRI to healthy subjects; settings: 19 healthy subjects, single administration, p=0.033; no difference before (p=0.18)
Text: In a test by two-way analysis of variance, the functional connectivities of FC #1 and FC #2 have a significant temporal interaction through treatment (FC #number x time, F (1,23)=6.70, p=0.016), and a significant difference was not observed for each primary effect. […] In all the diagrams of FIG. 32 and FIG. 33, transition toward the positive direction indicates transition toward the direction of the melancholic MDD, whereas transition toward the negative direction indicates transition toward the direction of the healthy individual. This is because the sign of the weight of the melancholic MDD classifier was multiplied by the FC or the difference in FC. […] Eleven melancholic MDD patients (serotonin-norepinephrine reuptake inhibitor (SNRI) duloxetine was administered for 6 weeks to 8 weeks) gathered in Chiba were considered (FIG. 32c). […] Next, the changes of FC #1 and FC #2 at the time of administration of SSRI to healthy subjects (19 persons) were observed. […] There was no difference before treatment (p=0.18), and a significant relation was […] observed (FIG. 32d).

melancholic MDD patients [2] = test: WLS score (related weighted sum of 12 functional connectivities, rs-fMRI) before and after antidepressant administration; settings: 24 remitted melancholic MDD patients, administered for 6 weeks to 8 weeks, FIG. 31c
Description: In this manner, a regression expression for classifying a melancholic MDD patient and a healthy individual, namely, a classifier, was created. Further, a related weighted sum (the associated weighted linear sum: WLS) was calculated as an indicator for determining whether each subject has the melancholic MDD or is healthy.
Next, whether an effect of escitalopram, which is a selective serotonin reuptake inhibitor (SSRI), can be evaluated by the WLS score was considered. A smoothed histogram of the WLS score of each of 24 remitted melancholic MDD patients shown in Table 1a, to whom escitalopram was administered for 6 weeks to 8 weeks, is shown in FIG. 31c.

SMILES: CNCC[C@H](Oc1cccc2ccccc12)c1cccs1 [duloxetine]
- difference between FC #1 and FC #2 after treatment (melancholic MDD patients [1]; 11 melancholic MDD patients of Chiba, administered for 6 weeks to 8 weeks, paired t-test p=0.10, before treatment n.s. p=0.77): difference in trend level

SMILES: Fc1ccc([C@@H]2CCNC[C@H]2COc2ccc3c(c2)OCO3)cc1 [paroxetine]
- difference between FC #1 and FC #2 after administration (healthy subjects): significant difference between FC #1 and FC #2 was observed

SMILES: CN(C)CCC[C@@]1(c2ccc(F)cc2)OCc2cc(C#N)ccc21 [escitalopram]
- difference between FC #1 and FC #2 after treatment (melancholic MDD patients [1]; Hiroshima cohort, corresponding t-test p=0.002, no difference before treatment (p=0.96)): significant difference was observed after treatment
- transition of FC #1 after treatment (melancholic MDD patients [1]; Hiroshima cohort, positive direction = direction of melancholic MDD): transitioned toward the positive direction
- distribution of the WLS score after administration (melancholic MDD patients [2]): shifted toward the healthy control group
